In US20090099169A1, “Benzofuran Compounds As EP1 Receptor Antagonists” (GLAXO GROUP LIMITED, priority 2006, published 2009):
Counter-ions that a name gives are not always drawn.

Target: T1, human EP1 receptor (Homo sapiens, UniProt P34995)
T1 sequence (P34995 1-402): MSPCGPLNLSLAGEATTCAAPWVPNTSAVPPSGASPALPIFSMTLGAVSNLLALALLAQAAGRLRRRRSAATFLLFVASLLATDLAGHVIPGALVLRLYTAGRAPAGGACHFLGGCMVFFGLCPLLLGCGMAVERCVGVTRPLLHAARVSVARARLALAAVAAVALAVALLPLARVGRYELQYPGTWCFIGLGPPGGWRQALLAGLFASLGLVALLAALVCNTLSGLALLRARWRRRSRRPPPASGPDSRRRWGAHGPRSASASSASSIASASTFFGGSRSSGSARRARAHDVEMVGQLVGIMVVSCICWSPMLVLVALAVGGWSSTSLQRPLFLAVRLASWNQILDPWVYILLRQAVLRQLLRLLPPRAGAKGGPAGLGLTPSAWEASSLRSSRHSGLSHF
Assay: human EP1 calcium mobilisation assay
Format: cell-based
Parameters: expressed in transfected cells
Conditions: CHO-K1 cells, antagonism of PGE2; averages of a number of experiments; read-out: functional pKi value (human EP1 calcium mobilisation assay) (converted)
In short: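 CHO-K1 cells stably transfected with human EP1 or EP3, loaded with Fluo-4 after 24 h culture, treated with compound, then challenged with PGE2. Calcium-driven fluorescence read on FLIPR; pIC50 is half-maximal inhibition of PGE2-induced calcium mobilisation, from curve fitting.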

CC(C)c1cc2cc(Cl)cc(Cc3ccc(C(=O)O)o3)c2o1 [Example 1, 5-{[5-Chloro-2-(1-methylethyl)-1-benzofuran-7-yl]methyl}-2-furancarboxylic Acid]
Ki: ≤ 316 nM

Cc1cc(C(=O)O)nn1Cc1cc(Cl)cc2cc(C(C)C)oc12 [Example 3, 1-{[5-Chloro-2-(1-methylethyl)-1-benzofuran-7-yl]methyl}-5-methyl-1H-pyrazole-3-carboxylic Acid]
Ki: ≤ 316 nM

CCNCc1ccc(NC(=O)c2cc(C)n(Cc3cc(Cl)cc4cc(C(C)C)oc34)n2)cc1 [Example 15, 1-{[5-Chloro-2-(1-methylethyl)-1-benzofuran-7-yl]methyl}-N-{4-[(ethylamino)methyl]phenyl}-5-methyl-1H-pyrazole-3-carboxamide hydrochloride]
Ki: ≤ 316 nM

Cc1cc(C(=O)Nc2ccc(CN3CCC(O)CC3)cc2)nn1Cc1cc(Cl)cc2cc(C(C)C)oc12 [Example 16, 1-{[5-Chloro-2-(1-methylethyl)-1-benzofuran-7-yl]methyl}-N-{4-[(4-hydroxy-1-piperidinyl)methyl]phenyl}-5-methyl-1H-pyrazole-3-carboxamide hydrochloride]
Ki: ≤ 316 nM

Cc1cc(C(=O)Nc2ccc(CN3CC[C@@H](O)C3)cc2)nn1Cc1cc(Cl)cc2cc(C(C)C)oc12 [Example 17, 1-{[5-Chloro-2-(1-methylethyl)-1-benzofuran-7-yl]methyl}-N-(4-{[(3R)-3-hydroxy-1-pyrrolidinyl]methyl}phenyl)-5-methyl-1H-pyrazole-3-carboxamide hydrochloride]
Ki: ≤ 316 nM

Cc1cc(C(=O)NN2CCOCC2)nn1Cc1cc(Cl)cc2cc(C3CCCCC3)oc12 [Example 28, 1-[(5-Chloro-2-cyclohexyl-1-benzofuran-7-yl)methyl]-5-methyl-N-4-morpholinyl-1H-pyrazole-3-carboxamide]
Ki: ≤ 316 nM
